Reference: ChEMBL document CHEMBL4043119, “Synthesis and biological evaluation in vitro and in mammalian cells of new heteroaryl carboxyamides as HIV-protease inhibitors” (Bioorg Med Chem, 2017)
The source made the active and inactive calls. The rule behind the calls is not given here.

How the values were obtained:
[1] = Inhibition of wild-type recombinant HIV-1 protease expressed in Escherichia coli using Abz-Thr-Ile-Nle-Phe(p-NO2)-Gln-Arg-NH2 as substrate by fluorescence assay; design: species or system Human immunodeficiency virus 1
[2] = tested on: Human immunodeficiency virus 1; test: Inhibition of recombinant HIV-1 GFP-tagged protease expressed in HEK293 cells assessed as increase in GFP-tagged protease accumulation at 10 uM after 24 hrs by Western blot analysis; format: cell-based
[3] = tested on: Human immunodeficiency virus 1; test: Inhibition of recombinant HIV-1 GFP-tagged protease expressed in HEK293 cells assessed as increase in GFP-tagged protease accumulation at 10 uM after 24 hrs by flow cytometric analysis; format: cell-based
[4] = tested on: Human immunodeficiency virus 1; test: Inhibition of recombinant HIV-1 GFP-tagged protease expressed in HEK293 cells assessed as increase in GFP-tagged protease accumulation after 24 hrs by fluorescence microscopic analysis; format: cell-based
[5] = tested on: HEK293; test: (§1) Cytotoxicity against HEK293 cells after 24 hrs by MTT assay; format: cell-based; conditions: human, hek293, 24 h
[6] = as §1; format: cell-based; conditions: human, HEK293 cells
[7] = tested on: Human immunodeficiency virus 1; test: Inhibition of recombinant HIV-1 GFP-tagged protease expressed in HEK293 cells assessed as increase in GFP-tagged protease accumulation at 10 to 30 uM after 24 hrs by flow cytometric analysis; format: cell-based

In the case of COc1ccc(S(=O)(=O)N(CC(C)C)C[C@@H](O)CNC(=O)c2ccc3occc3c2)cc1OC, the IC50 [1] is reported as 1 nM.
In the case of CC(C)CN(C[C@@H](O)[C@H](Cc1ccccc1)NC(=O)O[C@H]1CO[C@H]2OCC[C@H]21)S(=O)(=O)c1ccc(N)cc1, the “Inhibition (qualitative activity call)” value [2] is reported as “Active”, the inhibition [3] is reported as “Active” and the inhibition [4] is reported as “Active”.
For COc1ccc(S(=O)(=O)N(CC(C)C)C[C@@H](O)CNC(=O)c2ccc3sccc3c2)cc1OC, the IC50 [1] was 15 nM.
In the case of COc1ccc(S(=O)(=O)N(CC(C)C)C[C@@H](O)[C@H](Cc2ccccc2)NC(=O)c2ccc3[nH]ccc3c2)cc1OC, the Activity [5] is reported as “Dose-dependent effect”, the CC50 at 24 h [6] is reported as over 200000 nM and the IC50 [1] is reported as 2 nM. For the same compound, the “Inhibition (qualitative activity call)” value [2] was “Active”, the inhibition [7] was “Active” and the inhibition [4] was “Active”.
Work on COc1ccc(S(=O)(=O)N(CC(C)C)C[C@@H](O)CNC(=O)c2ccc3[nH]ccc3c2)cc1OC yielded an IC50 [1] of 4000 nM.
With COc1ccc(S(=O)(=O)N(CC(C)C)C[C@@H](O)[C@H](Cc2ccccc2)NC(=O)c2ccc3occc3c2)cc1OC the Activity [5] was “Dose-dependent effect”, the CC50 at 24 h [6] was over 200000 nM and the IC50 [1] was 1.1 nM. The “Inhibition (qualitative activity call)” value [2] was “Active”, the inhibition [7] was “Active” and the inhibition [4] was “Active”.
In the case of COc1ccc(S(=O)(=O)N(CC(C)C)C[C@@H](O)[C@H](Cc2ccccc2)NC(=O)c2ccc3sccc3c2)cc1OC, the Activity [5] is reported as “Dose-dependent effect”, the CC50 at 24 h [6] is reported as over 200000 nM and the IC50 [1] is reported as 13 nM. For the same compound, the “Inhibition (qualitative activity call)” value [2] was “Active”, the inhibition [7] was “Active” and the inhibition [4] was “Active”.
